Results on one compound are retold here after article PMC4576993 (Leukemia, 2011).

The series can be described thus: Renal excretion of vosaroxin and metabolites in urine, 24 h after first dose. Format: in vivo, human. The conditions noted are these: 18 and 27 mg/m^2 weekly, eight patients.

Regarding `CO[C@H]1CN(c2ccc3c(=O)c(C(=O)O)cn(-c4nccs4)c3n2)C[C@@H]1N` [N-desmethyl-vosaroxin], the “Average renal excretion of the total dose infused” value (24 h after first dose) is 0.99%. The Detection in urine result (first dose) is given as “the only metabolite detected in urine”. Also, the “Ratio of N-desmethyl-vosaroxin to vosaroxin excretion in urine” value (first dose, coefficient of variation 40%) worked out at 0.43.
